Laboratory results published in ChEMBL document CHEMBL1201862, “PubChem BioAssay data set” (2004).
Activity calls are given as the source filed them.

Key:
[1] = target: FAD-linked sulfhydryl oxidase ALR (Homo sapiens, UniProt P55789); assay: inhibitors of human ALR sulfhydryl oxidase, dose response, biochemical, H2O2 detection, luminescence, cherry-pick (AID 493248)
[2] = NIH-3T3 fibroblast cytotoxicity, dose response, cytotoxicity control, cell-based, fluorescence, Alamar Blue, secondary assay (AID 2327); type: functional;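 note: NIH-3T3 mouse fibroblasts cultured with fluconazole at 8 µg/mL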
[3] = C. albicans growth with fluconazole, confirmation, fluorescence, retest (AID 2467); type: functional, cell-based
[4] = HEp-2 cell cytotoxicity, dose response, cytotoxicity control for RSV inhibitor project, HTS (AID 2410); type: functional; conditions: human respiratory syncytial virus
[5] = Luminescence Cell-Based Dose Retest to Confirm Inhibitors of Cancer Stem Cells. [Related pubchem assays (depositor defined):AID2717, AID2721]; type: functional; conditions: Homo sapiens
[6] = target: T1, Protein skinhead-1 (Caenorhabditis elegans, UniProt P34707); type: functional
T1 sequence (P34707 whole entry): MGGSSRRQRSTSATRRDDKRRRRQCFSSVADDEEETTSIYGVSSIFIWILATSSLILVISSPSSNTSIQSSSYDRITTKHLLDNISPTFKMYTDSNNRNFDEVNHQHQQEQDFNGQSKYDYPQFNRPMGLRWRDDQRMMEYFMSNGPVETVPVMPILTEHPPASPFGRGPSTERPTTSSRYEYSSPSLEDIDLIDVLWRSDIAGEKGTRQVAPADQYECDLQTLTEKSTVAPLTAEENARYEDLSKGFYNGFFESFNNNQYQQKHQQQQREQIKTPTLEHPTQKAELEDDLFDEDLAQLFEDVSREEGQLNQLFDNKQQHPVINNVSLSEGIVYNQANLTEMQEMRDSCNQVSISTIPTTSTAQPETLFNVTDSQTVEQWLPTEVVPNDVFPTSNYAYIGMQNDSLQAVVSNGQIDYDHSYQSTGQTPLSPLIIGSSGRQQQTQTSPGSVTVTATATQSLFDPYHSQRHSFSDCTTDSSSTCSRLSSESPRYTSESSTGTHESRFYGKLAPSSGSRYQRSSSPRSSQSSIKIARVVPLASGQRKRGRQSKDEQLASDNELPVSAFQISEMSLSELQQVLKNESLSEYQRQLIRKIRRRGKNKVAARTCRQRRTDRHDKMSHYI

[7] = target: T2, Cytochrome P450 1A2 (Homo sapiens, UniProt P05177);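 note: PubChem cytochrome P450 panel assay, CYP1A2 panel member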
T2 sequence (P05177 whole entry): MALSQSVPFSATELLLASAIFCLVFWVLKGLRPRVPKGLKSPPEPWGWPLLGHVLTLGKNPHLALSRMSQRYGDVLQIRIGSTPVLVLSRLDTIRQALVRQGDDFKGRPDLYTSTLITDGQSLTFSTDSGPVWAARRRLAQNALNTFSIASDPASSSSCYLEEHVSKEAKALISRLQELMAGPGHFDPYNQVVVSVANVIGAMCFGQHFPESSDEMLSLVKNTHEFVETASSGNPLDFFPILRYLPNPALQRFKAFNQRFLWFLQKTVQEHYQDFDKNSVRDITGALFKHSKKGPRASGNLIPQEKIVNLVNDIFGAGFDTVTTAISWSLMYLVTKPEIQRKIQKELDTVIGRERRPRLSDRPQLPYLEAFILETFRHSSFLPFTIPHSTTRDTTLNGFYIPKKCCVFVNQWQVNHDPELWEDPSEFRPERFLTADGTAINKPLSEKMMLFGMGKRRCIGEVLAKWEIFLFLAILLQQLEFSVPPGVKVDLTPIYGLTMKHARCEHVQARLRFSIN

[8] = target: Cytochrome P450 2C9 (Homo sapiens, UniProt P11712)
[9] = microbe, parasite or virus in culture; type: functional; conditions: Mycobacterium tuberculosis
[10] = test system: H4; assay: Luminescence Cell-Based Dose Response HTS to Identify Activators of 5'UTR Stem-Loop Driven Prion Protein mRNA Translation in H4 Neuroglioblastoma Cells. [Related pubchem assays: 1829 (Project Summary), 1814 (Primary HTS)]; type: functional; conditions: Homo sapiens
[11] = inhibitors of intracellular T. cruzi replication, confirmation, NIH3T3 host cells, beta-gal luminescence (AID 2044); type: functional, cell-based;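 note: intracellular parasites grown in NIH/3T3 mouse fibroblasts as host cells; luminescent beta-galactosidase reporter signal from transgenic T. cruzi replicating inside host cells; inhibitors lower the luminescence signal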
[12] = target: Cytochrome P450 2C19 (Homo sapiens, UniProt P33261); assay: Cytochrome panel assay with activity outcomes. Panel member name: p450-cyp2c19 Compounds with AC50 equal or less than 10 uM are considered active; type: functional; conditions: read-out: AC50
[13] = inhibitors of firefly luciferase expression or activity, dose response, H4 neuroglioma cells, luminescence (AID 1990); type: functional, cell-based
[14] = test system: Streptococcus sp. 'group A'; assay: growth inhibition of control SK(-) GAS strain, dose response, counter-screen for streptokinase expression inhibitor project, luminescence, kanamycin, BacTiterGlo, confirmation (AID 1900); type: functional, organism-based
[15] = Luminescence Cell-Based Dose Response HTS to Identify Inhibitors of 5'UTR Stem-Loop Driven Prion Protein mRNA Translation in H4 Neuroglioblastoma Cells. [Related pubchem assays: 1827 (Project Summary), 1813 (Primary HTS)]; type: functional
[16] = inhibitors of SNCA 5'UTR-driven reporter translation, confirmation, H4 neuroglioma cells, luminescence (AID 1988); type: functional, cell-based
[17] = cytotoxicity toward NIH3T3 fibroblasts, dose response, counter-screen, cell-based, ATP luminescence, mouse fibroblasts (AID 2010); type: functional;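 note: cells exposed to compound for about 90 hours before reading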
[18] = test system: Streptococcus; assay: Group A Streptococcus viability loss, dose response, counter-screen for streptokinase expression inhibitor project, luminescence, BacTiterGlo (AID 1915); type: functional, organism-based;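 note: potency for reduction of bacterial viability or growth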
[19] = test system: INS1; assay: beta cell apoptosis inhibitors, cytokine rescue, dose response, luminescence, retest (AID 449756); type: functional, cell-based; conditions: Rattus norvegicus;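 note: cell death triggered by IL-1 beta plus TNF-alpha plus IFN-gamma mixture; protective hits raise ATP signal compared with cytokine alone wells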

Chain of FAD-linked sulfhydryl oxidase ALR (P55789 whole entry): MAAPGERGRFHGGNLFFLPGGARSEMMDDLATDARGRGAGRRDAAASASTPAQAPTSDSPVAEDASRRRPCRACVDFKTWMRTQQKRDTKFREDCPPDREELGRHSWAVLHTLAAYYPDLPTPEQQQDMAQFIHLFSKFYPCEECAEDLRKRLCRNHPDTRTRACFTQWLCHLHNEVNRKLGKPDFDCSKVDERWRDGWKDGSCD
Chain of Cytochrome P450 2C9 (P11712 whole entry): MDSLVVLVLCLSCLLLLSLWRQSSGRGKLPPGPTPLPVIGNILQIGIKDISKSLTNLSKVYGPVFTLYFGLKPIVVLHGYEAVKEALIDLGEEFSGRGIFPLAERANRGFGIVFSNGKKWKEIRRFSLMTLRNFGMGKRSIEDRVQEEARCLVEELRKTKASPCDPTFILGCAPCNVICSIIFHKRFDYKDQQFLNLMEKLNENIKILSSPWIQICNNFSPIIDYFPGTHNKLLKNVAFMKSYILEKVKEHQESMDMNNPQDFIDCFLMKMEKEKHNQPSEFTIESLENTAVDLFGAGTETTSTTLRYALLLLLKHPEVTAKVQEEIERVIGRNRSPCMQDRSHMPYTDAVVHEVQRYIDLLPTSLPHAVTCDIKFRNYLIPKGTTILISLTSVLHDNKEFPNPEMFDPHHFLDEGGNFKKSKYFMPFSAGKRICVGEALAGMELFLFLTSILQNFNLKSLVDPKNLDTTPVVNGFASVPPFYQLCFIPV
Chain of Cytochrome P450 2C19 (P33261 whole entry): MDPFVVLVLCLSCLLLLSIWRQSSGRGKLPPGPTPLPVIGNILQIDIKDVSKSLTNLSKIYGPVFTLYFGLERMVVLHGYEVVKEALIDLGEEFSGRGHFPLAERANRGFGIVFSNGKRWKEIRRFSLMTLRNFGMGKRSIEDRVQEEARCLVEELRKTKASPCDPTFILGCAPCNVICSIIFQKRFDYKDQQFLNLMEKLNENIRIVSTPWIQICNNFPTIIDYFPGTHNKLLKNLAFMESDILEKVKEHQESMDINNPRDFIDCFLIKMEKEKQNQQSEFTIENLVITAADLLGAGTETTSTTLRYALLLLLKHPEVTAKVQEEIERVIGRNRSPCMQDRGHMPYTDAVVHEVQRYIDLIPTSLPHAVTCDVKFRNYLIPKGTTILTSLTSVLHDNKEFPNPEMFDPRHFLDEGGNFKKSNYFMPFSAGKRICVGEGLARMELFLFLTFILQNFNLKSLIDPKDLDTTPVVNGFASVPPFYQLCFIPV

CC(=O)N1CCN(C(=S)c2ccc(N(C)C)cc2)CC1
AC50 [1]: 1.13 µM (active)

Cc1nc(NC(=O)c2c(-c3ccccc3)noc2C)sc1C(=O)N(C)C
EC50 [2]: > 160 µM (inactive)
EC50 [3]: > 38 µM (not active)

Cn1c(-c2ccc(F)cc2)cnc1NCc1cc2c(cc1[N+](=O)[O-])OCO2
AC50 [1]: 7.43 µM (active)

O=C(/C=C/c1ccc2c(c1)OCCCO2)c1ccc2ccccc2c1O
CC50 [4]: 30.7 µM (active)
AC50 [5]: 5.21 µM (active)

Fc1ccc(-c2nnc(-c3ccc(F)cc3)o2)cc1
IC50 [6]: > 100 µM (inactive)

CC1Cc2ccccc2N1C(=O)C1CCN(S(=O)(=O)Cc2ccccc2)CC1 (centres undefined)
IC50 [6]: > 100 µM (inactive)

O=C(O)c1ccc(-c2nc(-c3ccc(Cl)cc3)cs2)cc1
EC50 [2]: 112 µM (active)
EC50 [3]: 4.58 µM (active)

COc1ccc(NC(=O)CN2CCN(Cc3ccc4c(c3)OCO4)CC2)cc1OC
IC50 [6]: > 100 µM (inactive)

COC(=O)c1ccc(=O)n(Cc2ccco2)c1
IC50 [6]: > 100 µM (inactive)

Cc1nc(C(F)(F)F)c(C(=O)O)cc1-c1nc(-c2ccccc2)cs1
AC50 [1]: 11.4 µM (active)

O=C(O)c1ccc(CSc2nc3ccccc3o2)cc1
AC50 [1]: 51.7 µM (active)
AC50 [7]: 0.0501 µM (inconclusive)
AC50 [8]: 39.8 µM (inconclusive)

Clc1ccc(CSc2ncn(-c3ccccc3)n2)cc1
IC50 [6]: 10.3 µM (active)

CCn1cc(C(=O)OCC(=O)Nc2cccc(Cl)c2Cl)c(=O)c2ccc(C)nc21
EC50 [2]: > 150 µM (inactive)
EC50 [3]: > 38 µM (not active)

O=C(c1cc(-c2ccccc2)on1)N1CCc2ccccc2C1
IC50 [6]: > 100 µM (inactive)

COc1ccc(OC)c2c(C)cc(N3CCCN(C)CC3)nc12
AC50 [1]: 22 µM (active)

COc1ccc(C2=CC(c3c(C)nn(-c4ccccc4)c3Cl)n3nnnc3N2)cc1OC (centres undefined)
CC50 [4]: 24.1 µM (active)
CC50 [9]: > 40 µM (active)

Nc1cc(N)nc(SCc2cccc(F)c2)n1
EC50 [2]: > 150 µM (inactive)
EC50 [3]: > 38 µM (not active)

Brc1cccc(OCCSc2ncccn2)c1
IC50 [6]: 63.6 µM (inactive)

Clc1ccc(-c2nc(-c3cnccn3)no2)cc1
IC50 [6]: 74.1 µM (inactive)

O=[N+]([O-])C(/C=C(\Cl)[N+](=O)[O-])=C(N1CCCCC1)N1CCCCC1
EC50 [10]: > 120 µM (not active)
EC50 [11]: 0.956 µM (active)

Fc1ccc2nc(Nc3nc4c(s3)CCCC4)sc2c1
EC50 [10]: 0.986 µM (active)

CNc1nc(N)c(C(=O)C23CC4CC(CC(C4)C2)C3)s1
AC50 [1]: 0.437 µM (active)

Nc1ccc(N2CCN(C(=O)c3ccco3)CC2)cc1
AC50 [1]: 0.719 µM (active)
AC50 [12]: 8.91 µM (inconclusive)
AC50 [8]: 10 µM (inconclusive)

COc1ccc(-c2cn(-c3ccc(C)cc3)c(=O)n2CC(=O)Nc2ccc(OC)cc2OC)cc1
IC50 [6]: > 100 µM (inactive)

CCn1cc(-c2ccccc2)c(C(=O)O)c1-c1ccc(OC)cc1
AC50 [1]: 5.6 µM (active)

O=C(NCC(=O)N1CCN(c2ccccc2O)CC1)c1cccs1
AC50 [1]: 4.14 µM (active)

Cn1c(/C=N/Nc2nc3ccccc3[nH]2)nc2ccccc21
EC50 [2]: 35.5 µM (active)
EC50 [3]: > 38 µM (not active)
CC50 [9]: > 40 µM (active)

CCOc1ccccc1C(=O)N/N=C/c1ccoc1
EC50 [2]: 138 µM (active)
EC50 [3]: 3.33 µM (active)

O=C1N=C(N/N=C/c2cccnc2)SC1Cc1ccc(SC(F)F)cc1 (centres undefined)
EC50 [2]: > 150 µM (inactive)
EC50 [13]: 11.9 µM (active)
EC50 [14]: 3.31 µM (active)
EC50 [15]: 12.2 µM (active)
EC50 [16]: 12.3 µM (active)
EC50 [3]: 1.87 µM (active)
EC50 [11]: 0.969 µM (active)
EC50 [17]: 3.44 µM (active)
EC50 [18]: 8.36 µM (active)
AC50 [19]: 2.56 µM (active)

Sc1nnc(C2CCCCC2)n1/N=C/C(Cl)=C\c1ccccc1
CC50 [4]: 15.2 µM (active)
AC50 [5]: 5.5 µM (active)
